Measured values from patent US20250382305A1 (PTC THERAPEUTICS, INC., priority 2022, published 2025).

Tests used:
[1] = system: Total ATXN3 (tATXN3) protein; experiment: Endogenous Total ATXN3 (tATXN3) Protein Assay (MSD immunoassay of cell lysates); format: cell-based; conditions: average IC50, total ATXN3 protein in cell lysate after 48 h with compound (Table 1)
Outline: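 By electrochemiluminescent MSD sandwich immunoassay (mouse monoclonal capture, rabbit monoclonal and SULFO-TAG anti-rabbit detection), endogenous ATXN3 was quantified in lysates of cells treated 48 h at 37° C at 10,000 cells/well. Treatment used a 7-point 3.16-fold duplicate dilution series, with average IC50 grouped into star categories.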

[2] = system: ATXN3 pre-mRNA; experiment: RT-qPCR Assay to Quantify Exon 4 Skipping in ATXN3 pre-mRNA in Cells; format: cell-based; conditions: percent exon 4 skipping in ATXN3 pre-mRNA, RT-qPCR of cell lysates; average IC50
Outline: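 IC50 derives from a dose-response fit of percent exon 4 skipping, quantified by RT-qPCR on crude lysates. Compounds tested as 7-point 3.16-fold dilutions in duplicate; cells (10,000/well) were exposed for 24 h at 37 °C before lysis.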

Row | SMILES | IC50 [1] [nM] | IC50 [2] [nM]
1 | N[C@@H]1CC=CC[C@@H]1c1sc2c(NCc3cccs3)cc(Cl)nc2c1Br.N[C@H]1CC=CC[C@H]1c1sc2c(NCc3cccs3)cc(Cl)nc2c1Br (racemic) [Compound 144, 2-((1S,6RS)-6-aminocyclohex-3-en-1-yl)-3-bromo-5-chloro-N-(thiophen-2-ylmethyl)thieno[3,2-b]pyridin-7-amine and 2-((1R,6SR)-6-aminocyclohex-3-en-1-yl)-3-bromo-5-chloro-N-(thiophen-2-ylmethyl)thieno[3,2-b]pyridin-7-amine] | ≤ 30 | ≤ 30
2 | N[C@H]1CCCC[C@@H]1c1sc2c(NCc3cccs3)cc(Cl)nc2c1Cl (single isomer, unassigned) [Compound 34, 2-((1S,2S)-2-aminocyclohexyl)-3,5-dichloro-N-(thiophen-2-ylmethyl)thieno[3,2-b]pyridin-7-amine or 2-((1R,2R)-2-aminocyclohexyl)-3,5-dichloro-N-(thiophen-2-ylmethyl)thieno[3,2-b]pyridine-7-amine] | ≤ 30 | ≤ 30
3 | N[C@@H]1CCCC[C@H]1c1sc2c(NCc3cccs3)cc(Cl)nc2c1Cl (single isomer, unassigned) [Compound 36, 2-((1R,2R)-2-aminocyclohexyl)-3,5-dichloro-N-(thiophen-2-ylmethyl)thieno[3,2-b]pyridin-7-amine or 2-((1S,2S)-2-aminocyclohexyl)-3,5-dichloro-N-(thiophen-2-ylmethyl)thieno[3,2-b]pyridine-7-amine] | > 1000 | > 1000
4 | CCc1c([C@@H]2CCCC[C@H]2N)sc2c(NCc3cccs3)cc(Cl)nc12 (single isomer, unassigned) [Compound 39, 2-((1R,2R)-2-aminocyclohexyl)-5-chloro-3-ethyl-N-(thiophen-2-ylmethyl)thieno[3,2-b]pyridin-7-amine or 2-((1S,2S)-2-aminocyclohexyl)-5-chloro-3-ethyl-N-(thiophen-2-ylmethyl)thieno[3,2-b]pyridine-7-amine] | > 1000 | > 1000
5 | CCc1c([C@H]2CCCC[C@@H]2N)sc2c(NCc3cccs3)cc(Cl)nc12 (single isomer, unassigned) [Compound 40, 2-((1S,2S)-2-aminocyclohexyl)-5-chloro-3-ethyl-N-(thiophen-2-ylmethyl)thieno[3,2-b]pyridin-7-amine or 2-((1R,2R)-2-aminocyclohexyl)-5-chloro-3-ethyl-N-(thiophen-2-ylmethyl)thieno[3,2-b]pyridin-7-amine] | 30 to 300 | 30 to 300
6 | N[C@@H]1CCCO[C@H]1c1sc2c(NCc3ccco3)nc(Cl)nc2c1Br (single isomer, unassigned) [Compound 42, 6-((2R,3R)-3-aminotetrahydro-2H-pyran-2-yl)-7-bromo-2-chloro-N-(furan-2-ylmethyl)thieno[3,2-d]pyrimidin-4-amine or 6-((2S,3S)-3-aminotetrahydro-2H-pyran-2-yl)-7-bromo-2-chloro-N-(furan-2-ylmethyl)thieno[3,2-d]pyrimidin-4-amine] | 300 to 1000 | 300 to 1000
7 | Cc1c([C@@H]2OCCC[C@H]2N)sc2c(NCc3cccs3)cc(Cl)nc12 (single isomer, unassigned) [Compound 44, 2-((2R,3R)-3-aminotetrahydro-2H-pyran-2-yl)-5-chloro-3-methyl-N-(thiophen-2-ylmethyl)thieno[3,2-b]pyridin-7-amine or 2-((2S,3S)-3-aminotetrahydro-2H-pyran-2-yl)-5-chloro-3-methyl-N-(thiophen-2-ylmethyl)thieno[3,2-b]pyridin-7-amine] | > 1000 | > 1000
8 | Cc1c([C@@H]2OCCC[C@H]2N)sc2c(NCc3cccs3)cc(Cl)nc12 (single isomer, unassigned) [Compound 45, 2-((2R,3R)-3-aminotetrahydro-2H-pyran-2-yl)-5-chloro-3-methyl-N-(thiophen-2-ylmethyl)thieno[3,2-b]pyridin-7-amine or 2-((2S,3S)-3-aminotetrahydro-2H-pyran-2-yl)-5-chloro-3-methyl-N-(thiophen-2-ylmethyl)thieno[3,2-b]pyridin-7-amine] | ≤ 30 | ≤ 30
